Patent publication US10806732B2, “Stable anti-neoplastic pharmaceutical composition comprising temozolomide and method of preparing the composition” (DOUBLE BOND PHARMACEUTICAL AB, priority 2016, dated 2020)

What was measured:
[1] = Stability of TMZ in dextran phosphate gel of pH 7.2-7.4 (prior art BY 11838 C1); assay type: physicochemical
Source text: BY 11838 C1 discloses a combined treatment method for malignant brain tumors. The method comprises surgical excision of the tumor tissue followed by application of TMZ comprised by high substituted dextran phosphate gel of pH 7.2-7.4. The dry weight ratio of TMZ/high substituted dextran phosphate in the preparation is 0.03:1.0. The freeze-dried gel is reconstituted by the addition of sterile water and pH adjusted prior to use, then applied to the wound surface. […] In addition, the structure of highly substituted dextran phosphate contains a large number of di- and tri-substituted phosphoric acid groups, which provide additional cross-linking of macromolecules, which reduces the ability to absorb water and limits the amount of TMZ to 30 mg/g in the gel of highly substituted dextran phosphate. The low concentration of TMZ in the composition implies that the volume must be increased to administrate higher dose of the substance, i.e., the prodrug TMZ, and thus also the amount highly substituted dextran phosphates administered is increased. A 2- or 3-fold increase in the amount of highly substituted dextran phosphates can lead to undesirable reactions associated with the duration of the biodegradation process. […]

[2] = oral administration; cited from earlier work

Cn1nnc2c(C(N)=O)ncn2c1=O [TMZ, 4-methyl-5-oxo-2,3,4,6,8-pentazabicyclo[4.3.0]nona-2,7,9-triene-9-carboxamide]
stability of TMZ (hydrolysis to AIC) [1]: decomposes
half-life [2]: 1.8 h
time to peak plasma concentration [2]: 0.7 h
